Values quoted from earlier work as cited in patent US9067940B2, “Alicyclic derivatives of N,N'-substituted 3,7-diazabicyclo[3.3.1]nonanes and medicaments based thereon” (priority 2011, dated 2015).

What was measured:
[1] = test system: AMPA receptors; settings: adult rats, 0.3-3 mg/kg
[2] = test system: AMPA receptors
[3] = test system: AMPA receptors; settings: only at high concentrations
[4] = test system: NMDA-mediated signals
[5] = behavioral models
[6] = mice suffering from diabetes

O=C(c1ccc2c(c1)OCCO2)N1CCCCC1 [CX546]
social memory [1]: improves social memory

COc1ccc(C(=O)N2CCCC2=O)cc1 [aniracetam]
effect on synaptic signal at several hippocampus sites [2]: enhances the synaptic signal | concentration at which the clinical effect is manifested [3]: 0.1 mM | effect on NMDA-mediated signals [4]: no effect

COc1ccc(C(=O)NCCCC(=O)O)cc1 [anisoyl-GABA]
aniracetam-like effects ([2]; metabolite of aniracetam): no aniracetam-like effects

B1: BDNF: brain-derived neurotrophic factor, a neural tissue growth factor (protein, UniProt P23560 19-247, looked up)
Neurotrophic factor BDNF …: APMKEANIRGQGGLAYPGVRTHGTLESVNGPKAGSRGLTSLADTFEHVIEELLDEDQKVRPNEENNKDADLYTSRVMLSSQVPLEPPLLFLLEEYKNYLDAANMSMRVRRHSDPARRGELSVCDSISEWVTAADKKTAVDMSGGTVTVLEKVPVSKGQLKQYFYETKCNPMGYTKEGCRGIDKRHWNSQCRTTQSYVRALTMDSKKRIGWRFIRIDTSCVCTLTIKRGR
antidepressant effect [5]: antidepressant effect | blood glucose concentration [6]: reduce the blood glucose concentration
